In patent publication US9855257B2, “4-alkynyl imidazole derivative and medicine comprising same as active ingredient” (KAKEN PHARMACEUTICAL CO., LTD., priority 2013, dated 2018):
pIC50: −log10 of the molar value.

Legend:
[1] = test system: Carrageenin Induced Paw Edema in Rats; experiment: Anti-inflammatory effect on carrageenin induced paw edema in rats; type: in vivo, rat; conditions: Wistar male rats, oral 10 mg/5 mL/kg one hour before carrageenin, paw volume four hours after treatment; means of 5˜8 cases
Procedure: Test for Evaluating the Anti-Inflammatory Effect on Carrageenin Induced Paw Edema in Rats
The animals were Wistar male rats (7-week old). The paw volume of the right hind leg was measured with a paw volume meter (PLETHYSMOMETER, Ugo Basile Model 7141 or 7150). One hour after orally administering a test compound at a dose of 10 mg/5 mL/kg, a carrageenin treatment group was given a 1 w/v % carrageenin solution and a non-treatment group given distilled water, each administered subcutaneously to the footpad of the right hind leg at a dose of 0.1 mL. Four hours after the treatment with carrageenin (or distilled water), the paw volume was measured and the change in paw volume from the pre-treatment value was calculated. The anti-inflammatory effect of the test compound was confirmed using the percent paw edema suppression (see below) as an indicator. In the present experimental models, Cerecoxib (COX inhibitor already available on the market as an anti-inflammatory/analgesic agent) was used as a positive control.

rat EP4 receptor = target: T1, rat EP4 receptor (Rattus norvegicus, UniProt P43114); experiment: Rat EP4 receptor antagonistic action by the reporter assay method; type: cell-based; conditions: COS-7 cells expressing rat EP4 receptor, CRE-LUC reporter, PGE2 1×10^−8 mol/L; geometric mean of three cases; read-out: Intensity of EP4 Receptor Antagonistic Activity IC50
T1 construct: its translated region was integrated into the expression vector pShooter (Invitrogen); expressed in transfected cells; host or cells: COS-7 cells (Cercopithecus aethiops kidney), transiently co-transfected with ratEP4-pShooter and a CRE-LUC reporter vector
Procedure: Test for Evaluating the Rat EP4 Receptor Antagonistic Action by the Reporter Assay Method
The first step was the cloning of the rat EP4 receptor. Total RNA was prepared from the kidney extracted from rats. With the total RNA used as a template, the rat EP4 receptor gene was cloned by RT-PCR and its translated region was integrated into the expression vector pShooter (Invitrogen) to prepare a rat EP4 receptor expressing vector (ratEP4-pShooter).
In the next step, rat EP4 receptor expressing cells for use in the reporter assay were prepared. COS-7 cells (derived from the kidney of Cercopithecus aethiops) were cultured in Dulbecco's Modified Eagle Medium (DMEM) (supplemented with 10% fetal bovine serum) in a 75-cm^2 cell culture flask. After the cells proliferated to a subconfluent state, the medium was removed and rinsed with phosphate buffered physiological saline (PBS). Trypsin-EDTA and a growth medium were used to recover the cells, which were then centrifuged. The supernatant was removed and the cells were suspended in DMEM. The cell suspension was seeded on a 96-well plate at a density of 2×10^4 cells/100 μL/well and cultured. The DMEM was mixed with Plus reagent, Lipofectamine 2000, the rat EP4 receptor expressing vector (ratEP4-pShooter) and a CRE-LUC reporter vector (CLONTECH) to prepare a transfection solution. Three hours after the seeding of the cells, 50 μL of the medium was removed and 50 μL/well of the transfection solution was added, followed by culture overnight. Negative control cells were prepared using pShooter in place of the receptor expressing vector. The cells were seeded on a 96-well plate for reporter assay and cultured.
The medium on the 96-well plate was removed and a test compound was added in an amount of 50 μL/well. After ca. 30-min culture, a PGE2 solution (2×10^−8 mol/L) was added in an amount of 50 μL/well (final concentration of PGE2: 1×10^−8 mol/L). As a PGE2-free control, there were provided wells to which a test medium had been added in an amount of 50 μL/well. About three hours later, the medium was removed and reporter assay was performed in accordance with the protocol accompanying the Steady-Glo Luciferase Assay System kit. Luminous intensity was measured with a microplate reader (Fusion-FPα, PerkinElmer) and EP4 receptor antagonistic activity (%) was determined by the following calculation formula: EP4 receptor antagonistic activity (%)=[1−(RLU(A,X)−RLU(0))/(RLU(PGE2)−RLU(0))]×100 RLU(A,X): Luminous intensity expressed in relative luminescence units (RLU) for the case where the test compound (A) X (mol/L) and PGE2 10^−8 mol/L were both added; RLU(PGE2): Luminous intensity for the case where only PGE2 10^−8 mol/L was added; RLU(0): Luminous intensity for the case where neither test compound nor PGE2 was added.
In addition, a dose-response curve was plotted from the EP4 receptor antagonistic activities at varying concentrations of each test compound and using the following approximation formula, the IC50 (the concentration of the test compound required to inhibit the PGE2 inducing activity by 50%) was calculated to determine the intensity of the compound's EP4 receptor antagonistic activity. The results are shown in Table 2: Y=Bottom+(Top−Bottom)/{1+10^(Log IC50−Log X)} Bottom: 0 Top: 100 X: Concentration of the test compound (mol/L) Y: EP4 receptor antagonistic activity (%)

[2] = test system: Adjuvant Induced Arthritis in Rats; experiment: Anti-inflammatory and analgesic effects on adjuvant induced arthritis in rats; type: in vivo, rat; parameters: Percent Effectiveness: scale not given: direction of the effect not stated beside the values; conditions: Lewis male rats, oral 0.3 mg/kg once a day, day 9 to day 17 after adjuvant; for Percent paw edema suppression: measured at day 18, means of 8˜10 cases; for Percent Effectiveness: pain threshold at day 18, 8˜10 cases
Procedure: Test for Evaluating Anti-Inflammatory and Analgesic Effects on Adjuvant Induced Arthritis in Rats
The animals were Lewis male rats (6-week old). An adjuvant solution (2 mg/mL) was administered intradermally to the footpad of the left hind leg of each animal at a dose of 0.1 mL to create an arthritis model. Paw volume was measured with a paw volume meter (PLETHYSMOMETER, Ugo Basile Model 7141). For evaluation of pain thresholds, a probe fitted to the sensor site of Pressure Application Measurement (PAM, Ugo Basile Model 38500) was used to turn the foot sole of a rat upward (dorsiflexion) until it gave an indication of pain or discomfort (vocalization) and the load being applied was measured. Eight days after the treatment with the adjuvant, the paw volume and pain threshold of each treated foot were measured and the animals were grouped for oral administration of each test compound (0.3 mg/kg) which was performed for nine days on a once-a-day schedule starting at day 9 and ending at day 17 after the treatment. At day 18 after the treatment, the paw volume and pain threshold of each […] foot were measured.
The anti-inflammatory effect of the test compound was confirmed using the percent paw edema suppression as an indicator. Percent paw edema suppression (%)=[(paw volume change in the control group−paw volume in each treatment group)/(paw volume change in the control group−paw volume change in the non-treatment group)]×100
As for the analgesic effect, the animals in the test compound group that had nociceptive thresholds greater than [(the mean nociceptive threshold of the control group)+2×standard deviation] were found “effective animals” and the percent effectiveness of each compound was calculated.

[3] = test system: Monoiodoacetic Acid Induced Joint Pain in Rats; experiment: Analgesic effect on monoiodoacetic acid induced joint pain in rats; type: in vivo, rat; conditions: SD male rats, oral 10 mg/kg three days after MIA treatment, measured two hours later with incapacitance tester
Procedure: Test for Evaluating Analgesic Effect on Monoiodoacetic Acid Induced Joint Pain in Rats
The animals were SD male rats (6 week-old). The right knee of each animal was treated intraarticularly with monoiodoacetic acid (MIA) to induce joint pain. Three days after the MIA treatment, a test compound (10 mg/kg) was administered orally and two hours later, the loads on the right and left hind legs were measured with an incapacitance tester (Linton).

[4] = test system: Carrageenin Induced Hyperalgesia in Rats; experiment: Analgesic effect on carrageenin induced hyperalgesia in rats; type: in vivo; conditions: Rattus norvegicus, 2 h; SD male rats, oral 10 mg/5 mL/kg six hours after carrageenin, nociceptive threshold (Randall-Selitto) two hours after administration; 5˜7 cases; read-out: Percent Effectiveness
Procedure: Test for Evaluating Analgesic Effect on Carrageenin Induced Hyperalgesia in Rats
The animals were SD male rats (5-week old). Before treatment with carrageenin (or distilled water), the rats were measured for nociceptive thresholds in their right hind leg by the Randall-Selitto method and divided into a carrageenin treatment group and a non-treatment group to provide uniformity in nociceptive threshold. The carrageenin treatment group was given a 1 w/v % carrageenin solution and the non-treatment group given distilled water, each administered subcutaneously to the footpad of the right hind leg at a dose of 0.1 mL. Five hours after the treatment, the nociceptive thresholds were measured and the individuals with decreased thresholds were selected and grouped such that there was no inter-group difference in threshold. Six hours after the treatment, each test compound was orally administered at a dose of 10 mg/5 mL/kg. The control group was administered 0.5% methylcellulose. Two hours after the administration of the test compound (8 hours after the treatment), the nociceptive threshold was measured. The animals in the test compound group that had nociceptive thresholds greater than [(the mean nociceptive threshold of the control group)+2×standard deviation] were found “effective animals” and the percent effectiveness of each compound was calculated.

T1 sequence (P43114 whole entry): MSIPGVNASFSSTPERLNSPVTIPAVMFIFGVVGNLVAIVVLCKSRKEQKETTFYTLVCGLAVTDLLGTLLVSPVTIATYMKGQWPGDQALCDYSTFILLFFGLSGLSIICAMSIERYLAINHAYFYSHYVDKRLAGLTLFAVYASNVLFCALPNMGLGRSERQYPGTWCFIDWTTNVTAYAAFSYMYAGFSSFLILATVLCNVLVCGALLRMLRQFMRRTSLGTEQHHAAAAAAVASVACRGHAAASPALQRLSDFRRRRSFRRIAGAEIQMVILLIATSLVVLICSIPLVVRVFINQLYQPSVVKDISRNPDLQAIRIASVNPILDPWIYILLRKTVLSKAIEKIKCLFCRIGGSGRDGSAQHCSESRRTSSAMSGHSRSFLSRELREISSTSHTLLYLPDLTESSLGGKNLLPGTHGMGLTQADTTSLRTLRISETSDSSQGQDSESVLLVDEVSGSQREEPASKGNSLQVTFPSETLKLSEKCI

SMILES | pIC50 (rat EP4 receptor) | Percent paw edema suppression [1] [%] | Percent paw edema suppression [2] [%] | Percent Effectiveness [2] [%] | suppression of right knee joint pain (ratio between the loads on the right and left hind legs) [3] | responders at 10 mg/kg [4] [%]
COC(C)(C)C#Cc1nc(Cl)n(Cc2ccc(C)cc2)c1C(=O)NC[C@H]1CC[C@H](C(=O)O)CC1 [Compound 22, trans-4-{[2-Chloro-4-(3-methoxy-3-methyl-1-butyn-1-yl)-1-(4-methylbenzyl)-1H-imidazole-5-carboxamido]methyl}cyclohexanecarboxylic acid] | 7.93 | 19 | 90 | 60 | suppression of right knee joint pain was confirmed | 83
COC(C)(C)C#Cc1nc(C2CC2)n(CCOc2ccc(Cl)cc2)c1C(=O)NCc1ccc(C(=O)O)cc1 [Compound 47, 4-({1-[2-(4-Chlorophenoxy)ethyl]-2-cyclopropyl-4-(3-methoxy-3-methyl-1-butyn-1-yl)-1H-imidazole-5-carboxamido}methyl)benzoic acid] | 7.46 | 26 | – | – | – | 67
COC(C)(C)C#Cc1nc(Cl)n(CCOc2ccc(Cl)cc2)c1C(=O)NCC1CCC(C(=O)O)CC1 (stereo not drawn) [Compound 40] | 8.02 | 29 | – | – | – | 100
CC(C)(O)C#Cc1nc(Cl)n(CCOc2ccc(Cl)cc2)c1C(=O)NCC1CCC(C(=O)O)CC1 (stereo not drawn) [Compound 39] | 7.46 | 22 | – | – | – | 100

Further lines, with some results ahead:

pIC50 (rat EP4 receptor) | SMILES | Percent paw edema suppression [1] [%] | Percent paw edema suppression [2] [%] | Percent Effectiveness [2] [%] | suppression of right knee joint pain (ratio between the loads on the right and left hind legs) [3] | responders at 10 mg/kg [4] [%]
7.96 | COC(C)(C)C#Cc1nc(Cl)n(Cc2ccc(C(F)(F)F)cc2)c1C(=O)NC[C@H]1CC[C@H](C(=O)O)CC1 [Compound 10, trans-4-({2-Chloro-4-(3-methoxy-3-methyl-1-butyn-1-yl)-1-[4-(trifluormethyl)benzyl]-1H-imidazole-5-carboxamido}methyl)cyclohexanecarboxylic acid] | 26 | 82 | 78 | suppression of right knee joint pain was confirmed | 100
8.77 | COC(C)(C)C#Cc1nc(Cl)n(Cc2ccc(C(F)(F)F)cc2)c1C(=O)NC1(c2ccc(C(=O)O)cc2)CC1 [Compound 42, 4-(1-{2-Chloro-4-(3-methoxy-3-methyl-1-butyn-1-yl)-1-[4-(trifluoromethyl)benzyl]-1H-imidazole-5-carboxamido}cyclopropyl)benzoic acid] | 28 | 88 | 90 | suppression of right knee joint pain was confirmed | 83
